In article PMC4342491, “Cross-talk between Two Nucleotide-signaling Pathways in Staphylococcus aureus” (The Journal of Biological Chemistry, 2015):

Legend:
[1] = biological target: T1, GdpP (rGdpP) (Staphylococcus aureus, UniProt Q2G2T6); assay: TLC of radiolabelled c-di-AMP hydrolysis to pApA; type: biochemical; conditions: labelled compound; 20 μM c-di-AMP, 1 μM enzyme, 50 mM Tris pH 8.5, 0.1 mM MnCl2, 20 mM KCl, room temperature, no ppGpp
T1 construct: gene SAOUHSC_00015; residues 84-655, N-terminal transmembrane helices removed
T1 sequence (Q2G2T6 84-655): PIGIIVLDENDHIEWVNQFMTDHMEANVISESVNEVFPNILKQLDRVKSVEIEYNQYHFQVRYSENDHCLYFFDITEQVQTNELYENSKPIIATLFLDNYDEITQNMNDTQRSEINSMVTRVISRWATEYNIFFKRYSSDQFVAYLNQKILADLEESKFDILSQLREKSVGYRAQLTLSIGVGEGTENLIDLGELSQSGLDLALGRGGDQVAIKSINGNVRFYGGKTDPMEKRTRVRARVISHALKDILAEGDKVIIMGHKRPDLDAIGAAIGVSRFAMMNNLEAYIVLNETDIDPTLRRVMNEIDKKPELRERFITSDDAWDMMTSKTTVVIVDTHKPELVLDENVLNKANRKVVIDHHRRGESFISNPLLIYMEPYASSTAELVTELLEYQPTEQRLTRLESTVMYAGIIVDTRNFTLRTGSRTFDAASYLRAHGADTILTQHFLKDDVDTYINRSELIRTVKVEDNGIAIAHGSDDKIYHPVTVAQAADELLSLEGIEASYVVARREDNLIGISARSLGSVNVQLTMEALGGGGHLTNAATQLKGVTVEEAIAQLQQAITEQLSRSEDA

[2] = biological target: T1, GdpP (rGdpP); assay: TLC of […]c-di-AMP hydrolysis to pApA, dose-response fit; type: biochemical

Nc1ncnc2c1ncn2[C@@H]1O[C@@H]2COP(=O)(O)O[C@H]3[C@@H](O)[C@H](n4cnc5c(N)ncnc54)O[C@@H]3COP(=O)(O)O[C@H]2[C@H]1O [c-di-AMP]
% pApA formation [1]: rGdpP was able to efficiently hydrolyze c-di-AMP in the absence of ppGpp

Nc1nc2c(ncn2[C@@H]2O[C@H](COP(=O)(O)OP(=O)(O)O)[C@@H](OP(=O)(O)OP(=O)(O)O)[C@H]2O)c(=O)[nH]1 [ppGpp]
Ki [2]: 130 ± 42.8 µM
